Data published in the NIST ThermoML archive (doi:10.1016/j.tca.2012.05.004).

Test: xn = mol fraction of the nth substance listed
Conditions: 101.3 kPa, Liquid, Vibrating tube method

ClCCCl [1,2-dichloroethane] + CC(C)O
mass density [kg/m3]
Conditions | 288.15 K | 293.15 K | 298.15 K | 303.15 K | 308.15 K | 313.15 K
x2 = 0.05 | 1235.82 | 1228.61 | 1221.38 | 1214.13 | 1206.71 | 1199.46
x2 = 0.1004 | 1211.74 | 1204.56 | 1197.38 | 1190.17 | 1182.93 | 1175.66
x2 = 0.1497 | 1188.26 | 1181.19 | 1174.09 | 1166.95 | 1159.78 | 1152.57
x2 = 0.2 | 1164.61 | 1157.64 | 1150.63 | 1143.59 | 1136.5 | 1129.37
x2 = 0.25 | 1141.22 | 1134.37 | 1127.47 | 1120.53 | 1113.54 | 1106.5
x2 = 0.3002 | 1117.88 | 1111.14 | 1104.37 | 1097.54 | 1090.67 | 1083.74
x2 = 0.3502 | 1094.71 | 1088.11 | 1081.46 | 1074.76 | 1068 | 1061.19
x2 = 0.4001 | 1071.46 | 1065.13 | 1058.72 | 1052.15 | 1045.52 | 1038.83
x2 = 0.4503 | 1048.29 | 1042.07 | 1035.7 | 1029.28 | 1022.79 | 1016.23
x2 = 0.4996 | 1025.41 | 1019.32 | 1013.1 | 1006.83 | 1000.49 | 994.079
x2 = 0.5502 | 1002 | 996.011 | 989.957 | 983.831 | 977.648 | 971.39
x2 = 0.6 | 978.769 | 972.943 | 967.056 | 961.099 | 955.079 | 948.987
x2 = 0.6498 | 955.713 | 950.066 | 944.351 | 938.562 | 932.714 | 926.783
x2 = 0.7 | 932.242 | 926.773 | 921.244 | 915.641 | 909.966 | 904.209
x2 = 0.75 | 908.934 | 903.601 | 898.262 | 892.85 | 887.36 | 881.789
x2 = 0.7996 | 885.608 | 880.568 | 875.378 | 870.212 | 864.918 | 859.549
x2 = 0.8495 | 861.973 | 857.114 | 852.182 | 847.228 | 842.144 | 836.984
x2 = 0.8998 | 837.957 | 833.329 | 828.632 | 823.858 | 819.006 | 814.085
x2 = 0.9497 | 813.892 | 809.502 | 805.032 | 800.505 | 795.891 | 791.195
